From PubChem BioAssay (NCI)
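96-well plates; 48 h exposure; 5 concentrations. Endpoints by linear interpolation between flanking doses. Not reached: highest tested concentration assigned. GI50 marks 50% less growth. At the TGI there is no net growth.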

Legend:
Assay in all cases: NCI-60 cell line screen, 48 h
NCI-H226 lung = test system: NCI-H226 lung
UACC-257 melanoma = test system: UACC-257 melanoma
RXF 393 renal = test system: RXF 393 renal
SK-MEL-2 melanoma = test system: SK-MEL-2 melanoma
SNB-19 CNS = test system: SNB-19 CNS
HS 578T breast = test system: HS 578T breast
OVCAR-4 ovarian = test system: OVCAR-4 ovarian
LOX IMVI melanoma = test system: LOX IMVI melanoma
T-47D breast = test system: T-47D breast
SR leukemia = test system: SR leukemia
BT-549 breast = test system: BT-549 breast
OVCAR-5 ovarian = test system: OVCAR-5 ovarian
SK-OV-3 ovarian = test system: SK-OV-3 ovarian
OVCAR-3 ovarian = test system: OVCAR-3 ovarian
MALME-3M melanoma = test system: MALME-3M melanoma
DU-145 prostate = test system: DU-145 prostate
ACHN renal = test system: ACHN renal
HCC-2998 colon = test system: HCC-2998 colon
MDA-MB-435 = test system: MDA-MB-435
SNB-75 CNS = test system: SNB-75 CNS
PC-3 prostate = test system: PC-3 prostate
COLO 205 colon = test system: COLO 205 colon
A549 NSCLC = test system: A549 NSCLC
CCRF-CEM leukemia = test system: CCRF-CEM leukemia
U251 CNS = test system: U251 CNS
SF-268 CNS = test system: SF-268 CNS
M14 melanoma = test system: M14 melanoma
786-0 renal = test system: 786-0 renal
HOP-62 NSCLC = test system: HOP-62 NSCLC
SF-539 CNS = test system: SF-539 CNS
MCF7 breast = test system: MCF7 breast
OVCAR-8 ovarian = test system: OVCAR-8 ovarian
IGROV1 ovarian = test system: IGROV1 ovarian
SK-MEL-5 melanoma = test system: SK-MEL-5 melanoma
NCI-H522 lung = test system: NCI-H522 lung
RPMI-8226 leukemia = test system: RPMI-8226 leukemia
K-562 leukemia = test system: K-562 leukemia
TK-10 renal = test system: TK-10 renal
SF-295 CNS = test system: SF-295 CNS
UO-31 renal = test system: UO-31 renal
HCT-15 colon = test system: HCT-15 colon
MOLT-4 leukemia = test system: MOLT-4 leukemia
NCI-H460 lung = test system: NCI-H460 lung
SN12C renal = test system: SN12C renal
A498 renal = test system: A498 renal
HOP-92 NSCLC = test system: HOP-92 NSCLC
MDA-MB-231 breast = test system: MDA-MB-231 breast
UACC-62 melanoma = test system: UACC-62 melanoma
CAKI-1 renal = test system: CAKI-1 renal
HL-60(TB) leukemia = test system: HL-60(TB) leukemia
KM12 colon = test system: KM12 colon
HCT-116 colon = test system: HCT-116 colon
NCI-H23 lung = test system: NCI-H23 lung
EKVX NSCLC = test system: EKVX NSCLC
SK-MEL-28 melanoma = test system: SK-MEL-28 melanoma
HT29 colon = test system: HT29 colon
SW-620 colon = test system: SW-620 colon
NCI/ADR-RES ovarian = test system: NCI/ADR-RES ovarian

For `O=c1nc(Nc2ccc([N+](=O)[O-])cc2O)sc2ccccc12`, the GI50 (NCI-H226 lung) was 783 nM, the TGI (NCI-H226 lung) was > 16.7 µM and the GI50 (UACC-257 melanoma) was 1660 nM. The TGI (UACC-257 melanoma) was > 16.7 µM, the GI50 (RXF 393 renal) was 437 nM and the TGI (RXF 393 renal) was 2330 nM. For the same compound, the GI50 (SK-MEL-2 melanoma) was 1180 nM, the TGI (SK-MEL-2 melanoma) was > 16.7 µM and the GI50 (SNB-19 CNS) was 949 nM. For the same compound, the TGI (SNB-19 CNS) was > 16.7 µM, the GI50 (HS 578T breast) was 576 nM and the TGI (HS 578T breast) was > 16.7 µM. For the same compound, the GI50 (OVCAR-4 ovarian) was 4.4 µM, the TGI (OVCAR-4 ovarian) was > 16.7 µM and the GI50 (LOX IMVI melanoma) was 1140 nM. The TGI (LOX IMVI melanoma) was > 16.7 µM, the GI50 (T-47D breast) was 4.3 µM and the TGI (T-47D breast) was > 16.7 µM. For the same compound, the GI50 (SR leukemia) was 462 nM, the TGI (SR leukemia) was > 16.7 µM and the GI50 (BT-549 breast) was 885 nM. For the same compound, the TGI (BT-549 breast) was > 16.7 µM, the GI50 (OVCAR-5 ovarian) was 9.42 µM and the TGI (OVCAR-5 ovarian) was > 16.7 µM. For the same compound, the GI50 (SK-OV-3 ovarian) was 1310 nM, the TGI (SK-OV-3 ovarian) was > 16.7 µM and the GI50 (OVCAR-3 ovarian) was 719 nM. For the same compound, the TGI (OVCAR-3 ovarian) was > 16.7 µM, the GI50 (MALME-3M melanoma) was 4.09 µM and the TGI (MALME-3M melanoma) was > 16.7 µM. The GI50 (DU-145 prostate) was 5.61 µM, the TGI (DU-145 prostate) was > 16.7 µM and the GI50 (ACHN renal) was 2160 nM. The TGI (ACHN renal) was > 16.7 µM, the GI50 (HCC-2998 colon) was 4.39 µM and the TGI (HCC-2998 colon) was > 16.7 µM. For the same compound, the GI50 (MDA-MB-435) was 466 nM, the TGI (MDA-MB-435) was > 16.7 µM and the GI50 (SNB-75 CNS) was 307 nM. The TGI (SNB-75 CNS) was 1200 nM, the GI50 (PC-3 prostate) was 4.92 µM and the TGI (PC-3 prostate) was > 16.7 µM. For the same compound, the GI50 (COLO 205 colon) was > 16.7 µM, the TGI (COLO 205 colon) was > 16.7 µM and the GI50 (A549 NSCLC) was 4.58 µM. For the same compound, the TGI (A549 NSCLC) was > 16.7 µM, the GI50 (CCRF-CEM leukemia) was 4.47 µM and the TGI (CCRF-CEM leukemia) was > 16.7 µM. The GI50 (U251 CNS) was 1060 nM, the TGI (U251 CNS) was > 16.7 µM and the GI50 (SF-268 CNS) was 1310 nM. For the same compound, the TGI (SF-268 CNS) was > 16.7 µM, the GI50 (M14 melanoma) was 648 nM and the TGI (M14 melanoma) was > 16.7 µM. For the same compound, the GI50 (786-0 renal) was 6.06 µM, the TGI (786-0 renal) was > 16.7 µM and the GI50 (HOP-62 NSCLC) was 917 nM. The TGI (HOP-62 NSCLC) was > 16.7 µM, the GI50 (SF-539 CNS) was 696 nM and the TGI (SF-539 CNS) was 8.94 µM. The GI50 (MCF7 breast) was 637 nM, the TGI (MCF7 breast) was > 16.7 µM and the GI50 (OVCAR-8 ovarian) was 3.83 µM. For the same compound, the TGI (OVCAR-8 ovarian) was > 16.7 µM, the GI50 (IGROV1 ovarian) was 1110 nM and the TGI (IGROV1 ovarian) was > 16.7 µM. It also gave a GI50 (SK-MEL-5 melanoma) of 858 nM, a TGI (SK-MEL-5 melanoma) of 5.41 µM and a GI50 (NCI-H522 lung) of 786 nM. For the same compound, the TGI (NCI-H522 lung) was 10.4 µM, the GI50 (RPMI-8226 leukemia) was 737 nM and the TGI (RPMI-8226 leukemia) was 10.8 µM. For the same compound, the GI50 (K-562 leukemia) was 557 nM, the TGI (K-562 leukemia) was > 16.7 µM and the GI50 (TK-10 renal) was > 16.7 µM. The TGI (TK-10 renal) was > 16.7 µM, the GI50 (SF-295 CNS) was 1110 nM and the TGI (SF-295 CNS) was > 16.7 µM. For the same compound, the GI50 (UO-31 renal) was 853 nM, the TGI (UO-31 renal) was > 16.7 µM and the GI50 (HCT-15 colon) was 756 nM. The TGI (HCT-15 colon) was > 16.7 µM, the GI50 (MOLT-4 leukemia) was 3.73 µM and the TGI (MOLT-4 leukemia) was > 16.7 µM. For the same compound, the GI50 (NCI-H460 lung) was 670 nM, the TGI (NCI-H460 lung) was > 16.7 µM and the GI50 (SN12C renal) was 3.15 µM. The TGI (SN12C renal) was > 16.7 µM, the GI50 (A498 renal) was 574 nM and the TGI (A498 renal) was 2300 nM. The GI50 (HOP-92 NSCLC) was 2300 nM, the TGI (HOP-92 NSCLC) was 15.9 µM and the GI50 (MDA-MB-231 breast) was 7.41 µM. The TGI (MDA-MB-231 breast) was > 16.7 µM, the GI50 (UACC-62 melanoma) was 880 nM and the TGI (UACC-62 melanoma) was > 16.7 µM. The GI50 (CAKI-1 renal) was 659 nM, the TGI (CAKI-1 renal) was > 16.7 µM and the GI50 (HL-60(TB) leukemia) was 662 nM. For the same compound, the TGI (HL-60(TB) leukemia) was 3.69 µM, the GI50 (KM12 colon) was 1040 nM and the TGI (KM12 colon) was > 16.7 µM. The GI50 (HCT-116 colon) was 882 nM, the TGI (HCT-116 colon) was > 16.7 µM and the GI50 (NCI-H23 lung) was 1100 nM. For the same compound, the TGI (NCI-H23 lung) was > 16.7 µM, the GI50 (EKVX NSCLC) was 4.05 µM and the TGI (EKVX NSCLC) was > 16.7 µM. The GI50 (SK-MEL-28 melanoma) was 4.22 µM, the TGI (SK-MEL-28 melanoma) was > 16.7 µM and the GI50 (HT29 colon) was > 16.7 µM. For the same compound, the TGI (HT29 colon) was > 16.7 µM, the GI50 (SW-620 colon) was 955 nM and the TGI (SW-620 colon) was > 16.7 µM. It also gave a GI50 (NCI/ADR-RES ovarian) of 532 nM and a TGI (NCI/ADR-RES ovarian) of 4.47 µM.
